Data: PubChem BioAssay AID1963425 (Molecular Pharmacology Branch, DTP, NCI, 2024)

System: 323965-272-R-J2-PDC complex spheroid growth, % test/control
Assay: Anticancer human tumor 323965-272-R-J2-PDC patient-derived pancreatic carcinoma cell line growth inhibition [Asc]
Conditions: for IC50: curve of first compound; for viability, T/C: stronger effect = lower value
Method in brief: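 Stromal components (HUVEC and hMSC) are co-assembled with the cancer cells into multicellular spheroids. Drugs are then added singly or paired, at concentrations falling by half-log increments from a clinically achievable maximum, capped at 10 microM without known Cmax.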

[1] = second compound 0.00316 µM, first compound 0.0316 µM
[2] = second compound 0.00316 µM, first compound 0.1 µM
[3] = second compound 0.01 µM, first compound 0.0316 µM
[4] = second compound 0.01 µM, first compound 0.1 µM
[5] = second compound 0.0316 µM, first compound 0.0316 µM
[6] = second compound 0.0316 µM, first compound 0.1 µM
[7] = second compound 0.1 µM, first compound 0.0316 µM
[8] = second compound 0.1 µM, first compound 0.1 µM
[9] = second compound 0.316 µM, first compound 0.0316 µM
[10] = second compound 0.316 µM, first compound 0.1 µM
[11] = second compound 1 µM, first compound 0.0316 µM
[12] = second compound 1 µM, first compound 0.1 µM
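Further: compound exposure lasted 7 days starting three days after spheroid seeding.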
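Wherever viability, T/C is given: 100% = DMSO vehicle control wells with viability set relative to vehicle.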

Structure (SMILES): NC1CCC(NC2CC2c2ccccc2)CC1 (stereo unspecified) + CNC(C)C(=O)NC1CN(S(=O)(=O)c2cccc(S(=O)(=O)N3CCC4CCC(C(=O)NC(c5ccccc5)c5ccccc5)N4C(=O)C(NC(=O)C(C)NC)C3)c2)CCC2CCC(C(=O)NC(c3ccccc3)c3ccccc3)N2C1=O
- IC50 (second compound 0.00316 µM): > 0.1 µM
- IC50 (second compound 0.01 µM): > 0.1 µM
- IC50 (second compound 0.0316 µM): > 0.1 µM
- IC50 (second compound 0.1 µM): > 0.1 µM
- IC50 (second compound 0.316 µM): > 0.1 µM
- IC50 (second compound 1 µM): > 0.1 µM
- viability, T/C (second compound 0.00316 µM, first compound 0.000316 µM): 96.2%
- viability, T/C (second compound 0.00316 µM, first compound 0.001 µM): 91.7%
- viability, T/C (second compound 0.00316 µM, first compound 0.00316 µM): 104%
- viability, T/C (second compound 0.00316 µM, first compound 0.01 µM): 97%
- viability, T/C [1]: 97.6%
- viability, T/C [2]: 94.2%
- viability, T/C (second compound 0.01 µM, first compound 0.000316 µM): 97.6%
- viability, T/C (second compound 0.01 µM, first compound 0.001 µM): 86.7%
- viability, T/C (second compound 0.01 µM, first compound 0.00316 µM): 95.9%
- viability, T/C (second compound 0.01 µM, first compound 0.01 µM): 101%
- viability, T/C [3]: 99.3%
- viability, T/C [4]: 90.5%
- viability, T/C (second compound 0.0316 µM, first compound 0.000316 µM): 106%
- viability, T/C (second compound 0.0316 µM, first compound 0.001 µM): 94.9%
- viability, T/C (second compound 0.0316 µM, first compound 0.00316 µM): 91.5%
- viability, T/C (second compound 0.0316 µM, first compound 0.01 µM): 99.3%
- viability, T/C [5]: 97.2%
- viability, T/C [6]: 97.1%
- viability, T/C (second compound 0.1 µM, first compound 0.000316 µM): 95%
- viability, T/C (second compound 0.1 µM, first compound 0.001 µM): 88.6%
- viability, T/C (second compound 0.1 µM, first compound 0.00316 µM): 87.6%
- viability, T/C (second compound 0.1 µM, first compound 0.01 µM): 85.3%
- viability, T/C [7]: 96.1%
- viability, T/C [8]: 96.7%
- viability, T/C (second compound 0.316 µM, first compound 0.000316 µM): 109%
- viability, T/C (second compound 0.316 µM, first compound 0.001 µM): 92%
- viability, T/C (second compound 0.316 µM, first compound 0.00316 µM): 88.7%
- viability, T/C (second compound 0.316 µM, first compound 0.01 µM): 97.5%
- viability, T/C [9]: 95.9%
- viability, T/C [10]: 91.2%
- viability, T/C (second compound 1 µM, first compound 0.000316 µM): 93.5%
- viability, T/C (second compound 1 µM, first compound 0.001 µM): 80.2%
- viability, T/C (second compound 1 µM, first compound 0.00316 µM): 87%
- viability, T/C (second compound 1 µM, first compound 0.01 µM): 87.3%
- viability, T/C [11]: 109%
- viability, T/C [12]: 85.2%

Structure (SMILES): O=C(c1cc(Cc2n[nH]c(=O)c3ccccc23)ccc1F)N1CCN(C(=O)C2CC2)CC1 + CNC(C)C(=O)NC1CN(S(=O)(=O)c2cccc(S(=O)(=O)N3CCC4CCC(C(=O)NC(c5ccccc5)c5ccccc5)N4C(=O)C(NC(=O)C(C)NC)C3)c2)CCC2CCC(C(=O)NC(c3ccccc3)c3ccccc3)N2C1=O
- IC50 (second compound 0.00316 µM): < 0.0316 µM
- IC50 (second compound 0.01 µM): > 10 µM
- IC50 (second compound 0.0316 µM): > 10 µM
- IC50 (second compound 0.1 µM): > 10 µM
- IC50 (second compound 0.316 µM): > 10 µM
- IC50 (second compound 1 µM): > 10 µM
- viability, T/C [1]: 43.1%
- viability, T/C [2]: 45.3%
- viability, T/C (second compound 0.00316 µM, first compound 0.316 µM): 41%
- viability, T/C (second compound 0.00316 µM, first compound 1 µM): 47.4%
- viability, T/C (second compound 0.00316 µM, first compound 3.16 µM): 44.6%
- viability, T/C (second compound 0.00316 µM, first compound 10 µM): 36.6%
- viability, T/C [3]: 99.4%
- viability, T/C [4]: 101%
- viability, T/C (second compound 0.01 µM, first compound 0.316 µM): 97.5%
- viability, T/C (second compound 0.01 µM, first compound 1 µM): 94.5%
- viability, T/C (second compound 0.01 µM, first compound 3.16 µM): 75.9%
- viability, T/C (second compound 0.01 µM, first compound 10 µM): 72%
- viability, T/C [5]: 101%
- viability, T/C [6]: 99.4%
- viability, T/C (second compound 0.0316 µM, first compound 0.316 µM): 100%
- viability, T/C (second compound 0.0316 µM, first compound 1 µM): 105%
- viability, T/C (second compound 0.0316 µM, first compound 3.16 µM): 102%
- viability, T/C (second compound 0.0316 µM, first compound 10 µM): 70.7%
- viability, T/C [7]: 92.6%
- viability, T/C [8]: 91.9%
- viability, T/C (second compound 0.1 µM, first compound 0.316 µM): 89.7%
- viability, T/C (second compound 0.1 µM, first compound 1 µM): 99.3%
- viability, T/C (second compound 0.1 µM, first compound 3.16 µM): 94.5%
- viability, T/C (second compound 0.1 µM, first compound 10 µM): 71.9%
- viability, T/C [9]: 93.4%
- viability, T/C [10]: 89.1%
- viability, T/C (second compound 0.316 µM, first compound 0.316 µM): 97.9%
- viability, T/C (second compound 0.316 µM, first compound 1 µM): 89.7%
- viability, T/C (second compound 0.316 µM, first compound 3.16 µM): 93.7%
- viability, T/C (second compound 0.316 µM, first compound 10 µM): 80%
- viability, T/C [11]: 94.5%
- viability, T/C [12]: 87%
- viability, T/C (second compound 1 µM, first compound 0.316 µM): 83.3%
- viability, T/C (second compound 1 µM, first compound 1 µM): 93.1%
- viability, T/C (second compound 1 µM, first compound 3.16 µM): 89.2%
- viability, T/C (second compound 1 µM, first compound 10 µM): 68.3%

Structure (SMILES): C=CC(=O)N1CCN(c2nc(=O)n(-c3c(C)ccnc3C(C)C)c3nc(-c4c(O)cccc4F)c(F)cc23)C(C)C1 (stereo unspecified) + CCN1C(C(=O)NC23CCC(C(=O)O)(CC2)CC3)C(c2cccc(Cl)c2F)C2(C(=O)Nc3cc(Cl)ccc32)C12CCCCC2
- IC50 (second compound 0.00949 µM): > 10 µM
- IC50 (second compound 0.03 µM): > 10 µM
- IC50 (second compound 0.0949 µM): > 10 µM
- IC50 (second compound 0.3 µM): > 10 µM
- IC50 (second compound 0.949 µM): > 10 µM
- IC50 (second compound 3 µM): > 10 µM
- viability, T/C (second compound 0.00949 µM, first compound 0.0316 µM): 82%
- viability, T/C (second compound 0.00949 µM, first compound 0.1 µM): 73.5%
- viability, T/C (second compound 0.00949 µM, first compound 0.316 µM): 60.5%
- viability, T/C (second compound 0.00949 µM, first compound 1 µM): 64.8%
- viability, T/C (second compound 0.00949 µM, first compound 3.16 µM): 68.7%
- viability, T/C (second compound 0.00949 µM, first compound 10 µM): 59.1%
- viability, T/C (second compound 0.03 µM, first compound 0.0316 µM): 75.4%
- viability, T/C (second compound 0.03 µM, first compound 0.1 µM): 70.1%
- viability, T/C (second compound 0.03 µM, first compound 0.316 µM): 68.7%
- viability, T/C (second compound 0.03 µM, first compound 1 µM): 68.7%
- viability, T/C (second compound 0.03 µM, first compound 3.16 µM): 65.8%
- viability, T/C (second compound 0.03 µM, first compound 10 µM): 65.6%
- viability, T/C (second compound 0.0949 µM, first compound 0.0316 µM): 80.7%
- viability, T/C (second compound 0.0949 µM, first compound 0.1 µM): 67.2%
- viability, T/C (second compound 0.0949 µM, first compound 0.316 µM): 62.8%
- viability, T/C (second compound 0.0949 µM, first compound 1 µM): 73%
- viability, T/C (second compound 0.0949 µM, first compound 3.16 µM): 66.2%
- viability, T/C (second compound 0.0949 µM, first compound 10 µM): 61.8%
- viability, T/C (second compound 0.3 µM, first compound 0.0316 µM): 75.1%
- viability, T/C (second compound 0.3 µM, first compound 0.1 µM): 73.2%
- viability, T/C (second compound 0.3 µM, first compound 0.316 µM): 65.6%
- viability, T/C (second compound 0.3 µM, first compound 1 µM): 60.9%
- viability, T/C (second compound 0.3 µM, first compound 3.16 µM): 67.7%
- viability, T/C (second compound 0.3 µM, first compound 10 µM): 63.2%
- viability, T/C (second compound 0.949 µM, first compound 0.0316 µM): 84.7%
- viability, T/C (second compound 0.949 µM, first compound 0.1 µM): 68.3%
- viability, T/C (second compound 0.949 µM, first compound 0.316 µM): 62.8%
- viability, T/C (second compound 0.949 µM, first compound 1 µM): 69.8%
- viability, T/C (second compound 0.949 µM, first compound 3.16 µM): 73.7%
- viability, T/C (second compound 0.949 µM, first compound 10 µM): 61.7%
- viability, T/C (second compound 3 µM, first compound 0.0316 µM): 79.3%
- viability, T/C (second compound 3 µM, first compound 0.1 µM): 71.5%
- viability, T/C (second compound 3 µM, first compound 0.316 µM): 61%
- viability, T/C (second compound 3 µM, first compound 1 µM): 68.1%
- viability, T/C (second compound 3 µM, first compound 3.16 µM): 65.8%
- viability, T/C (second compound 3 µM, first compound 10 µM): 58.6%
